Laboratory results as given in the NIST ThermoML archive (doi:10.1016/j.tca.2008.05.002).

Experiment: molar heat capacity at saturation pressure
Details: Crystal 4, Small (less than 1 g) adiabatic calorimetry

CCCCn1cc[n+](C)c1.O=[N+]([O-])[O-] [1-butyl-3-methylimidazolium nitrate]
Details | molar heat capacity [J/K/mol]
5.05 K | 0.5514
5.29 K | 0.65
5.54 K | 0.7586
5.8 K | 0.8834
6.06 K | 1.024
6.36 K | 1.195
6.69 K | 1.409
7.03 K | 1.636
7.37 K | 1.896
7.72 K | 2.169
8.08 K | 2.473
8.44 K | 2.803
8.8 K | 3.145
9.16 K | 3.525
9.53 K | 3.922
9.91 K | 4.346
10.39 K | 4.934
10.97 K | 5.66
11.56 K | 6.445
12.15 K | 7.288
12.75 K | 8.194
13.35 K | 9.123
13.96 K | 10.11
14.57 K | 11.12
15.18 K | 12.21
15.91 K | 13.62
16.74 K | 15.21
17.58 K | 16.85
18.42 K | 18.5
19.27 K | 20.2
20.12 K | 21.95
21.25 K | 24.37
22.68 K | 27.47
24.11 K | 30.69
25.54 K | 33.91
26.98 K | 37.09
28.44 K | 40.37
29.9 K | 43.58
31.35 K | 46.78
32.99 K | 50.29
34.79 K | 54.05
36.58 K | 57.69
38.37 K | 61.25
40.17 K | 64.77
42.06 K | 68.4
44.07 K | 72.18
46.09 K | 75.84
48.1 K | 79.42
50.1 K | 82.76
52.11 K | 86.06
54.13 K | 89.28
56.14 K | 92.32
58.16 K | 95.28
60.19 K | 98.2
62.22 K | 101.03
64.26 K | 103.75
66.29 K | 106.43
68.34 K | 109.04
70.38 K | 111.5
72.42 K | 113.97
74.46 K | 116.39
76.5 K | 118.68
78.55 K | 120.96
80.3 K | 122.59
80.56 K | 122.99
80.61 K | 123.11
82.15 K | 124.42
82.41 K | 124.84
82.67 K | 125.14
84.01 K | 126.23
84.27 K | 126.67
84.72 K | 127.15
85.89 K | 128.02
86.14 K | 128.46
87.78 K | 129.91
88.03 K | 130.27
89.67 K | 131.68
89.92 K | 132.02
91.58 K | 133.45
91.83 K | 133.79
93.5 K | 135.16
93.75 K | 135.5
95.43 K | 136.91
95.68 K | 137.25
97.36 K | 138.62
97.62 K | 138.98
99.3 K | 140.37
99.56 K | 140.68
101.25 K | 142.08
102.25 K | 142.93
103.21 K | 143.75
104.22 K | 144.6
105.18 K | 145.34
106.19 K | 146.25
107.15 K | 146.93
108.17 K | 147.88
109.13 K | 148.52
110.16 K | 149.43
111.11 K | 150.07
112.15 K | 150.98
113.1 K | 151.62
114.14 K | 152.51
115.1 K | 153.15
116.14 K | 154.02
117.1 K | 154.68
118.14 K | 155.53
119.11 K | 156.13
120.15 K | 157.05
121.12 K | 157.68
122.17 K | 158.58
123.13 K | 159.23
124.19 K | 160.07
125.15 K | 160.68
126.21 K | 161.54
127.17 K | 162.15
128.23 K | 163.05
129.2 K | 163.65
130.26 K | 164.54
131.23 K | 165.12
132.3 K | 166.01
133.26 K | 166.61
134.34 K | 167.5
135.3 K | 168.06
136.37 K | 168.99
137.33 K | 169.59
138.41 K | 170.52
139.37 K | 171.1
140.46 K | 172.05
141.42 K | 172.55
142.5 K | 173.51
143.46 K | 174.12
144.54 K | 175.06
145.5 K | 175.61
146.58 K | 176.59
147.55 K | 177.16
148.63 K | 178.1
149.59 K | 178.69
150.67 K | 179.61
151.64 K | 180.2
152.72 K | 181.14
153.69 K | 181.74
154.76 K | 182.69
155.74 K | 183.23
156.81 K | 184.24
157.78 K | 184.76
158.86 K | 185.75
159.83 K | 186.31
160.91 K | 187.26
161.87 K | 187.84
162.96 K | 188.75
163.91 K | 189.21
165 K | 190.24
165.95 K | 190.7
167.05 K | 191.85
168 K | 192.27
169.09 K | 193.36
170.04 K | 193.84
171.13 K | 194.94
172.08 K | 195.39
173.17 K | 196.55
174.12 K | 196.86
175.21 K | 198.14
176.16 K | 198.59
177.25 K | 199.73
178.2 K | 200.16
179.28 K | 201.42
180.24 K | 201.83
181.31 K | 203.03
182.28 K | 203.44
183.34 K | 204.64
184.31 K | 205.05
185.37 K | 206.25
186.34 K | 206.66
187.39 K | 207.86
188.36 K | 208.47
189.42 K | 209.67
190.39 K | 210.08
191.44 K | 211.28
192.41 K | 211.89
193.45 K | 212.89
194.43 K | 213.5
195.47 K | 214.71
196.44 K | 215.31
197.48 K | 216.31
198.45 K | 216.92
199.49 K | 218.13
200.46 K | 218.73
201.55 K | 219.94
202.53 K | 220.54
203.67 K | 221.75
204.65 K | 222.35
205.78 K | 223.56
206.76 K | 224.16
207.89 K | 225.37
208.87 K | 225.97
210 K | 227.38
210.98 K | 227.78
212.11 K | 229.19
213.09 K | 229.6
214.21 K | 231
215.19 K | 231.61
216.3 K | 232.82
217.29 K | 233.62
218.4 K | 234.63
219.38 K | 235.63
220.49 K | 236.44
221.47 K | 237.44
222.58 K | 238.25
